Data on six compounds can be found in the supplement of paper PMC8149375.

A value given as a limit tells only on which side of the number the result lay.

Common to all, as to conditions: treatment: drug + dasatinib (fixed dose, not stated); 5 days
Assay [1] relates to 769-P. As to the kind of experiment: GI50 of drug in presence of dasatinib; higher = less potent. As to the method:
(§1)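 Primary HTS combination arm: 8 RCC cell lines treated with 8 doses (up to 10 uM) of each library drug plus a fixed dose of dasatinib (dose not stated) for 5 days; viability read by CellTiter-Glo and normalised to DMSO. GI50 was fitted with XLfit, AUC is the area under the dose-response curve, and minimum viability is the lowest fraction of DMSO viability across doses.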

Assay [2] concerns 786-O. The assay is described as above. As to the method: as §1
Assay [3] has as its system A498. Described as above. As to the method:
as §1

Assay [4] has as its system ACHN. The description is as above. The procedure:
as §1

The test system of assay [5] is CAKI-1. The description is as above. As to the method:
as §1

Assay [6] has as its system SN12C. Described as above. The procedure:
as §1

The test system of assay [7] is TK-10. Described as above. As to the method: as §1
Assay [8] concerns UO-31. The assay is described as above. As to the method: as §1
The test system of assay [9] is 769-P. Nature of the assay: minimum viability across doses, drug + dasatinib, relative to DMSO (fraction); higher = less growth inhibition. The procedure: as §1
In assay [10] the test system is 786-O. Described as above. As to the method: as §1
Assay [11] deals with A498. The description is as above. The procedure:
as §1

The subject of assay [12] is ACHN. Described as above. The procedure: as §1
Assay [13] has as its system CAKI-1. The description is as above. As to the method: as §1
Assay [14] concerns SN12C. The assay is described as above. As to the method: as §1
Assay [15] concerns TK-10. The description is as above. As to the method:
as §1

The test system of assay [16] is UO-31. The assay is described as above. The procedure:
as §1

The test system of assay [17] is 769-P. As to the kind of experiment: AUC of dose-response viability curve, drug + dasatinib, normalised to DMSO (arbitrary (AUC of normalised viability)); higher = less growth inhibition. The procedure:
as §1

Assay [18] has as its system 786-O. The assay is described as above. The procedure:
as §1

The subject of assay [19] is A498. Described as above. As to the method:
as §1

Assay [20] deals with ACHN. The assay is described as above. As to the method: as §1
Assay [21] deals with CAKI-1. The assay is described as above. As to the method: as §1
For assay [22], the system named is SN12C. The assay is described as above. As to the method: as §1
Assay [23] deals with TK-10. The description is as above. The procedure: as §1
Assay [24] deals with UO-31. The assay is described as above. The procedure:
as §1

In the case of `CN(C)CCOc1ccc(-c2nc(-c3ccncc3)c(-c3ccc4c(c3)CC/C4=N/O)[nH]2)cc1` + Cc1nc(Nc2ncc(C(=O)Nc3c(C)cccc3Cl)s2)cc(N2CCN(CCO)CC2)n1 [dasatinib], the GI50 of drug was 3.46 µM in assay [1]; 3.72 µM in assay [2]; 3.76 µM in [3]; 2.48 µM in assay [4]; 3.9 µM in assay [5]; > 10 µM in assay [6]. Besides, the figures for the GI50 of drug in [7] and in [8] were 9.95 µM and 8.34 µM, respectively. Moreover, the “minimum viability across doses” value in [9] was 0.0915; in [10], 0.0096; in assay [11], 0.0493; in assay [12], 0.0859; in assay [13] it was 0.0583; in assay [14], 0.476. The entries for the “minimum viability across doses” value in [15] and in assay [16] were 0.497 and 0.0511, respectively. The “AUC of dose-response viability curve” value stood at 2.3 in assay [17]; 2.6 in [18]; 3.54 in [19]; 2.29 in assay [20]; 2.33 in assay [21]; 2.57 in assay [22]. In addition, the entries for the “AUC of dose-response viability curve” value in assay [23] and in [24] were 3.03 and 3.9, respectively.
For `Cc1cc(Nc2cc(N3CCN(C)CC3)nc(Sc3ccc(NC(=O)C4CC4)cc3)n2)n[nH]1` [VX-680 (MK-0457, Tozasertib)] + Cc1nc(Nc2ncc(C(=O)Nc3c(C)cccc3Cl)s2)cc(N2CCN(CCO)CC2)n1 [dasatinib], the GI50 of drug in assay [1] worked out at 0.325 µM; in assay [2], 0.152 µM; in [3], 1.11 µM; in assay [4] it was 0.145 µM; in [5], 0.0951 µM; in assay [6], 0.511 µM. For the same compound, the GI50 of drug in [7] is > 10 µM; in assay [8], 3.33 µM. The “minimum viability across doses” value is 0.269 in assay [9]; 0.308 in assay [10]; 0.183 in assay [11]; 0.139 in [12]; 0.077 in assay [13]; 0.0667 in [14]. The “minimum viability across doses” value in assay [15] came to 0.536; in assay [16] it was 0.0311. The “AUC of dose-response viability curve” value in [17] amounted to 1.79; in assay [18] it was 1.88; in assay [19] it was 2.4; in [20] it was 1.68; in assay [21], 1.6; in [22], 1.97. Also, the “AUC of dose-response viability curve” value in assay [23] was determined as 2.73; in [24] it was 2.75.
Consider `CCCS(=O)(=O)Nc1ccc(F)c(C(=O)c2c[nH]c3ncc(Cl)cc23)c1F` [PLX-4720] + Cc1nc(Nc2ncc(C(=O)Nc3c(C)cccc3Cl)s2)cc(N2CCN(CCO)CC2)n1 [dasatinib], for which the GI50 of drug in assay [1] was > 10 µM; in [2] it was 2.74 µM; in [3] it was > 10 µM; in [4], 1.07 µM; in assay [5], 1.7 µM; in assay [6], > 10 µM. The GI50 of drug is 5.47 µM in [7] and > 10 µM in assay [8]. For the same compound, the “minimum viability across doses” value was determined as 0.641 in assay [9]; 0.212 in [10]; 0.765 in assay [11]; 0.127 in assay [12]; 0.0731 in assay [13]; 0.679 in [14]. Besides, the “minimum viability across doses” value worked out at 0.361 in assay [15] and 0.806 in assay [16]. Besides, the “AUC of dose-response viability curve” value was determined as 2.48 in assay [17]; 2.13 in assay [18]; 3 in [19]; 1.93 in assay [20]; 2.08 in assay [21]; 2.47 in [22]. Further, the “AUC of dose-response viability curve” value came to 2.44 in assay [23] and 3.22 in assay [24].
Turning to `Cn1cc(C2=C(c3cn(C4CCN(Cc5ccccn5)CC4)c4ccccc34)C(=O)NC2=O)c2ccccc21` + Cc1nc(Nc2ncc(C(=O)Nc3c(C)cccc3Cl)s2)cc(N2CCN(CCO)CC2)n1 [dasatinib], the GI50 of drug in assay [1], in assay [2], in [3], in assay [4], in assay [5] and in assay [6] was > 10 µM in each case. For the same compound, the figures for the GI50 of drug in assay [7] and in assay [8] were > 10 µM and 6.32 µM, respectively. The “minimum viability across doses” value in assay [9] stood at 0.571; in assay [10] it was 0.636; in assay [11] it was 0.817; in assay [12], 0.566; in assay [13], 0.585; in assay [14], 0.62. Further, the “minimum viability across doses” value in assay [15] came out at 0.667; in assay [16] it was 0.341. The “AUC of dose-response viability curve” value in [17] came to 2.27; in [18], 2.71; in assay [19], 3.04; in assay [20], 2.28; in assay [21] it was 2.2; in assay [22] it was 2.38. Also, the “AUC of dose-response viability curve” value in assay [23] was determined as 2.85; in [24], 3.35.
On to `O=C1CCC(N2C(=O)c3ccccc3C2=O)C(=O)N1` (centres undefined) [Thalidomide] + Cc1nc(Nc2ncc(C(=O)Nc3c(C)cccc3Cl)s2)cc(N2CCN(CCO)CC2)n1 [dasatinib], for which the GI50 of drug in assay [1], in assay [2], in [3], in assay [4], in assay [5] and in assay [6] was > 10 µM each time. The GI50 of drug in assay [7] and in assay [8] was > 10 µM in each case. For the same compound, the “minimum viability across doses” value in assay [9] was 0.666; in [10], 0.556; in assay [11], 0.971; in assay [12] it was 0.555; in assay [13] it was 0.638; in assay [14], 0.679. Also, the “minimum viability across doses” value in assay [15] is 0.665; in assay [16] it was 1.03. Further, the “AUC of dose-response viability curve” value was found to be 2.54 in assay [17]; 2.49 in assay [18]; 3.94 in assay [19]; 2.17 in assay [20]; 2.35 in assay [21]; 2.52 in assay [22]. Also, the “AUC of dose-response viability curve” value was determined as 2.48 in [23] and 4.13 in [24].
For `COc1ccc(S(=O)(=O)N(C(C)=O)c2ccccc2/C=C/c2cc[n+]([O-])cc2)cc1` [HMN-214] + Cc1nc(Nc2ncc(C(=O)Nc3c(C)cccc3Cl)s2)cc(N2CCN(CCO)CC2)n1 [dasatinib], the GI50 of drug was 0.278 µM in assay [1]; 0.0997 µM in [2]; 0.387 µM in assay [3]; 0.00538 µM in assay [4]; 0.0744 µM in assay [5]; 0.342 µM in [6]. For the same compound, the GI50 of drug in assay [7] worked out at 0.609 µM; in assay [8], 0.499 µM. In addition, the “minimum viability across doses” value in assay [9] came to 0.0839; in assay [10] it was 0.00332; in assay [11] it was 0.124; in assay [12], 0.102; in assay [13], 0.121; in assay [14] it was 0.172. Moreover, the results for the “minimum viability across doses” value in [15] and in assay [16] were 0.297 and 0.00841, respectively. Besides, the “AUC of dose-response viability curve” value in [17] worked out at 1.95; in assay [18], 1.18; in assay [19] it was 2.04; in assay [20], 1.15; in [21], 1.32; in assay [22], 1.78. The “AUC of dose-response viability curve” value is 2.02 in assay [23] and 2.65 in assay [24].
